This passage reports RP-LC retention time results from the METLIN SMRT retention time set (Domingo-Almenara et al. 2019).

This data set in a line: gradient 5% acetonitrile 3 min, to 50% in 2 min, to 85% in 15 min, held 3 min, 100 µL/min. As to conditions: column: Zorbax Extend-C18 2.1 x 50 mm; eluents: water / acetonitrile, 0.1% formic acid. In a few lines:
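In both positive and negative ionization mode, a quadrupole time-of-flight mass spectrometer coupled to HPLC analyzed pure standards run in mixtures of ~100 molecules. The Zorbax Extend-C18 column (2.1 × 50 mm, 1.8 μm) was operated at 100 μL/min with water and acetonitrile, each containing 0.1% formic acid. The dead volume was 40 μL and the dwell volume 900 μL. Retention time came from adduct peaks that were computationally picked and individually inspected by hand.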
Consider `CCCn1c(=O)c2c(nc3n2CCCCN3c2ccc(OCC)cc2)n(C)c1=O`, for which the RP-LC retention time worked out at 973 s.
For `COC(=O)c1cccc(NC(=O)c2sc(-c3cn(C(C)C)c4ncccc34)nc2C)c1` the value was 1060 s.
Take `O=C(N[C@@H]1CN(Cc2ccc(C(F)(F)F)cc2)CC[C@@H]1CO)C1CC1`: the RP-LC retention time came to 614 s.
Compound `O=C(Nc1nc(-c2ccccc2)cs1)NC1CCCCC1` displayed an RP-LC retention time of 991 s.
The compound `CCCN1C(=O)COc2ccc(-c3noc(-c4ccc(C)cc4)n3)cc21` registered an RP-LC retention time of 1300 s.
Consider `CC(C)CCNC(=O)C1(C)Cn2nc(C(=O)NCc3ccccc3)cc2C(=O)N1C` (stereo not drawn), for which the RP-LC retention time is 712 s.
`CCN1c2cc(Cl)ccc2C(=O)NC12CCN(C(=O)NCCc1ccccc1)CC2` returned an RP-LC retention time of 863 s.
In the case of `CC(=O)c1cccc(NC(=O)CN2C(=O)NC3(CCC(C)CC3)C2=O)c1` (stereo not drawn), the RP-LC retention time came out at 746 s.
For the compound `CCN(CC)S(=O)(=O)c1ccc(C(=O)Nc2nc3c(s2)CCc2ccccc2-3)cc1`, the RP-LC retention time stood at 738 s.
Turning to `Cc1coc2c(C)c3oc(=O)c(CCC(=O)N4CCN(c5ccccn5)CC4)c(C)c3cc12`, the RP-LC retention time was 795 s.
In turn, `CCc1cccc2c3c([nH]c12)[C@@](CC)(CC(=O)O)OCC3` displayed an RP-LC retention time of 925 s.
In the case of `CC(C)CC(=O)Nc1ccc(-n2cnc(C(=O)N3CCc4ccccc4C3)c2)nc1`, the RP-LC retention time was 817 s.
`CCn1cc(-c2ccc(C)cc2)cc1C(=O)NC(C)C` gave an RP-LC retention time of 1040 s.
The compound `COc1ccc(-c2cn3c(CC(=O)NCc4cccs4)csc3n2)cc1OC` showed an RP-LC retention time of 678 s.
Regarding `Cc1ccccc1NC(=O)Cn1c(C(F)(F)F)nc2cc3c(cc21)OCCO3`, the RP-LC retention time was found to be 857 s.
The compound `CCCN(CC1CCOC1)C(=O)Nc1ccccc1Br` (stereo not drawn) gave an RP-LC retention time of 832 s.
`CCCNC(=O)C1CCCN(c2nnc3c(Cl)cccn23)C1` (stereo not drawn) had an RP-LC retention time of 571 s.
`CC(=O)NC(C)c1nc(-c2ccc(C(C)(C)C)cc2)no1` (stereo not drawn) returned an RP-LC retention time of 901 s.
As to `CN(C)c1ccc(C(=O)NC2CCN(c3ccc(F)cc3)C2=O)cc1` (stereo not drawn), the RP-LC retention time worked out at 778 s.
Consider `Cn1nc(C(=O)NCc2ccc3c(c2)OCO3)c2c1CCN(C(=O)COc1ccc(Cl)cc1)C2`, for which the RP-LC retention time was 856 s.
`O=C(NCc1[nH]nc2ccccc12)c1ccc2c(c1)OCO2` displayed an RP-LC retention time of 704 s.
On to `CCn1c(=O)sc2cc(S(=O)(=O)N3CCC(C(=O)Nc4cccc(F)c4)CC3)ccc21`, for which the RP-LC retention time was found to be 941 s.
Regarding `CCC(C)Sc1nnc(NC(=O)C2CCN(C(=O)c3ccccc3)CC2)s1` (stereo not drawn), the RP-LC retention time turned out to be 854 s.
Compound `CC(C)C(=O)NCc1cnn(-c2ccc(C(=O)N(C)Cc3ccco3)cc2)c1` returned an RP-LC retention time of 696 s.
To `Cn1c(=O)sc2cc(S(=O)(=O)N3CCC(C(=O)NCc4ccccc4)CC3)ccc21` belongs 851 s.
Regarding `Cc1nc2cccnc2n1C1CCN(C(=O)c2cccc(Cl)c2)C1` (stereo not drawn), the RP-LC retention time is 602 s.
In turn, `COc1ccc(OC)c(NS(=O)(=O)c2cccs2)c1` gave an RP-LC retention time of 777 s.
`Cc1sc2ccn(C)c(=O)c2c1C(=O)NCc1ccc(Br)cc1` showed an RP-LC retention time of 811 s.
The compound `CCc1ccc(CNC(=O)Cn2c(CC)nc3c(c2=O)CN(Cc2ccccc2)CC3)cc1` returned an RP-LC retention time of 707 s.
To `Cc1nn(CC(=O)NCc2ccco2)c(=O)c2c(C)n(-c3ccccc3)nc12` belongs 764 s; to `Cc1ccccc1-c1cc(C(N)=O)c2ccccc2n1`, 718 s; to `COc1cc(F)ccc1-c1ccnc2nc(C(C)C)nn12`, 842 s.
Take `CCN1C(=O)COc2ccc(-c3csc(NC(=O)c4ccccc4Cl)n3)cc21`: the RP-LC retention time came to 968 s.
